# Experimental data taken from US20190119649A1, “METHODS FOR GENERATING AUGMENTED STEM CELL-DERIVED BETA CELLS AND USES THEREOF” (President and Fellows of Harvard College, priority 2014, published 2019).
# What was measured:
# SC-β cells [1] = conditions: R428 together with antioxidant N-acetylcysteine; FIG. 1A
# Text: FIG. 2C is a schematic depicting an overview of an exemplary method for generating augmented SC-β cells in accordance with the present invention.
# In accordance with aspects of the present invention, the period of time comprises between 7 days and 21 days. […] In accordance with aspects of the present invention, the period of time comprises 3 days, 4 days, 5 days, 6 days, 7 days, 8 days, 9 days, 10 days, 11 days, 12 days, 13 days, 14 days, 15 days, 16 days, 17 days, 18 days, 19 days, 20 days, 21 days, 22 days, 23 days, 24 days, 25 days, 26 days, 27 days, 28 days, 29 days, or 30 days or longer.
# SC-β cells [2] = assay: Glucose stimulated insulin secretion stimulation index of SC-β cells; type: cell-based, human; conditions: R428 together with antioxidant N-acetylcysteine; FIG. 1B and 1C
# Description: Stimulation index=[insulin@20 mM glucose]/[insulin@2 mM glucose]. Relative Stim Index=Stim Index/Stim Index of Control.
smiles,measurement,setting,value
Nc1nc(Nc2ccc3c(c2)CC[C@@H](N2CCCC2)CC3)nn1-c1cc2c(nn1)-c1ccccc1CCC2 [Compound R428],MAFA gene expression relative to SC-β cells generated without AXL inhibitor and antioxidant,SC-β cells [1],increased MAFA gene expression
same,Stimulation index ([insulin@20 mM glucose]/[insulin@2 mM glucose]) relative to SC-β cells generated without AXL inhibitor,SC-β cells [2],greater stimulation index
